In US20240109900A1, “AZABICYCLIC SHP2 INHIBITORS” (IRBM S.P.A., priority 2021, published 2024):

Tests used:
[1] = tested on: ERK phosphorylation in KYSE-520 cells; assay: Phospho-ERK cellular assay; assay type: cell-based; conditions: Homo sapiens, KYSE-520, 2 h, KYSE-520 cells, 2 h at 37° C., phospho-ERK1/2 (Thr202/Tyr204) TR-FRET; read-out: PERK IC50
Method: ERK phosphorylation was detected using the “Advanced phospho-ERK1/2 (Thr202/Tyr204)” TR-FRET kit (Cisbio, Cat #64AERPEG/H), following the manufacturer reagents and instructions.
Briefly, 20.000/well KYSE-520 cells (DSMZ ACC 371) were plated in 6 μL RPMI-1640 (Invitrogen) growth medium, into 384 white low-volume high base TC microplates (Greiner). After an overnight incubation, cells were treated with DMSO serial diluted compounds and incubated for 2 h at 37° C. After incubation, 2 μL/well of 4×Lysis Buffer (Cisbio 64KL1FDF), were added and incubated with cells for 30 min on gentle shaking. Finally, lysates were added with 2 μL/well of Eu cryptate (donor) and D2 (acceptor) conjugated antibodies (as provided by the Cisbio kit #64AERPEG/H) diluted 1:100 in Detection Buffer (as provided by the Cisbio kit #64AERPEG/H). Plates were then sealed and incubated at room temperature in the dark. After an overnight incubation, the TR-FRET signal was detected on a suitable reader (Envision, PerkinElmer). The lower the TR-FRET signal the higher the higher the SHP2 inhibition in cells.
The activity of each compound dilution was calculated as percentage between vehicle DMSO treated cells and no cells, 0% inhibition and 100% inhibition respectively. The percentage activity is fitted against the compound dilutions with a four-parameter logistic regression. The inflection point (i.e. the concentration at which half-maximal inhibition is achieved) is the IC50.

[2] = target: SHP-2 enzyme (Met1-Leu525) (Homo sapiens (Human), UniProt Q06124); assay: SHP2 inhibition enzymatic assay; assay type: biochemical; conditions: 0.5 nM SHP-2 activated by 500 nM IRS1 peptide, 75 μM DiFMUP substrate; read-out: SHP2wt-IC50
Method: The assay was performed as described in YP Chen et al, Nature (535)2016. Assay volume of 20 μL/well was assembled in 384 well black polystyrene low-binding microplates (Greiner), using the following buffer: 60 mM HEPES pH 7.2, 75 mM NaCl, 75 mM KCl, 1 mM EDTA pH 8, 0.05% tween-20, 5 mM DTT. The SHP-2 enzyme (synthetized by Origene, Met1-Leu525, cat #TP750155) was used at a final concentration of 0.5 nM. The enzyme was activated by 500 nM IRS1 peptide (sequence: H2N-LN(pY)IDLDLV(dPEG8)LST(pY)ASINFQK-amide SEQ ID No. 1) and incubated with 75 μM DiFMUP (Sigma) as substrate.
Briefly, DMSO serially diluted testing compounds were transferred to the bottom of the assay plate. SHP2 was then added together with the IRS1 peptide. 30 min post incubation, the DiFMUP substrate was added to the reaction and incubated 30 min at room temperature. Finally 5 μL of 160 μM bpV (Potassium bisperoxo[1,10-phenanthroline]oxovanadate [V], Sigma) were added to stop and quench the reaction. The fluorescence was detected by a microplate reader (Envision, PerkinElmer) according to the DiFMUP excitation and emission wavelength. The lower the fluorescence the higher the SHP2 inhibition. […] The percentage inhibition is fitted against the compound dilutions with a four-parameter logistic regression. The inflection point (i.e. the concentration at which half-maximal inhibition is achieved) is the IC50.

Chain of SHP-2 enzyme (Met1-Leu525) (Q06124 1-525): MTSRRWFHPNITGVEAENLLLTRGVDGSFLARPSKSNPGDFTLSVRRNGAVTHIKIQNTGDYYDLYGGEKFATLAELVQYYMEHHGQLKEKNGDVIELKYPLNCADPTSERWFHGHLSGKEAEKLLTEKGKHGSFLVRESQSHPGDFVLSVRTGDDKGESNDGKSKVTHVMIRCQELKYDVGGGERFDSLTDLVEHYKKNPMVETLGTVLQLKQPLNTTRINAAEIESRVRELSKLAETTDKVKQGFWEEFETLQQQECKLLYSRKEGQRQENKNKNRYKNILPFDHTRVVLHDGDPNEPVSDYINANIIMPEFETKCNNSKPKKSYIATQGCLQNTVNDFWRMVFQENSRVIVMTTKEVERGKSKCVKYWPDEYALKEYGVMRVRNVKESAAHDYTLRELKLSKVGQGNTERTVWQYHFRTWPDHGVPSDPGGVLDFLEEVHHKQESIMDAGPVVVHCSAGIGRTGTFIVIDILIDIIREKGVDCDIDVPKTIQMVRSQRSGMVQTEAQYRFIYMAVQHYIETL

| IC50 [1] | IC50 [2] | Structure (SMILES) |
| --- | --- | --- |
| < 1000 nM | < 500 nM | NCC1(c2ccccc2F)C2CCN(c3cnc4c(-c5cccc6ncccc56)n[nH]c4n3)CC21 (stereo not shown) [Example 5, (7-(2-fluorophenyl)-3-(3-(quinolin-5-yl)-1H-pyrazolo[3,4-b]pyrazin-6-yl)-3-azabicyclo[4.1.0]heptan-7-yl)methanamine] |
| < 1000 nM | < 500 nM | Cc1cc(C2(CN)C3CCN(c4cnc5c(-c6cccc(Cl)c6Cl)n[nH]c5n4)CC32)on1 (stereo not shown) [Example 6, (3-(3-(2,3-dichlorophenyl)-1H-pyrazolo[3,4-b]pyrazin-6-yl)-7-(3-methylisoxazol-5-yl)-3-azabicyclo[4.1.0]heptan-7-yl)methanamine] |
| < 1000 nM | < 500 nM | NCC1(c2cccc(F)c2)C2CCN(c3cnc4c(-c5cccc(Cl)c5Cl)n[nH]c4n3)CC21 (stereo not shown) [Example 7, (3-(3-(2,3-dichlorophenyl)-1H-pyrazolo[3,4-b]pyrazin-6-yl)-7-(3-fluorophenyl)-3-azabicyclo[4.1.0]heptan-7-yl)methanamine] |
| < 1000 nM | < 500 nM | Cc1cc(C2(CN)C3CCN(c4cnc5c(-c6cccc(Cl)c6Cl)n[nH]c5n4)CC32)no1 (stereo not shown) [Example 8, (3-(3-(2,3-dichlorophenyl)-1H-pyrazolo[3,4-b]pyrazin-6-yl)-7-(5-methylisoxazol-3-yl)-3-azabicyclo[4.1.0]heptan-7-yl)methanamine] |
| < 1000 nM | < 500 nM | Cc1cc(C2(CN)C3CCN(c4cnc5c(-c6cccc7ncccc67)n[nH]c5n4)CC32)no1 (stereo not shown) [Example 9, (7-(5-methylisoxazol-3-yl)-3-(3-(quinolin-5-yl)-1H-pyrazolo[3,4-b]pyrazin-6-yl)-3-azabicyclo[4.1.0]heptan-7-yl)methanamine] |
| < 1000 nM | < 500 nM | NCC1(c2ccc(F)cc2)C2CCN(c3cnc4c(-c5cccc(Cl)c5Cl)n[nH]c4n3)CC21 (stereo not shown) [Example 10, (3-(3-(2,3-dichlorophenyl)-1H-pyrazolo[3,4-b]pyrazin-6-yl)-7-(4-fluorophenyl)-3-azabicyclo[4.1.0]heptan-7-yl)methanamine] |
| > 5000 nM | < 500 nM | NCC1(c2ccc(F)cc2)C2CCN(c3cnc4c(-c5ccc6nccnc6c5)n[nH]c4n3)CC21 (stereo not shown) [Example 11, (7-(4-fluorophenyl)-3-(3-(quinoxalin-6-yl)-1H-pyrazolo[3,4-b]pyrazin-6-yl)-3-azabicyclo[4.1.0]heptan-7-yl)methanamine] |
| > 5000 nM | 500 to 3000 nM | NCC1(c2ccc(F)cc2)C2CCN(c3cnc4c(-c5cccc6cccnc56)n[nH]c4n3)CC21 (stereo not shown) [Example 12, (7-(4-fluorophenyl)-3-(3-(quinolin-8-yl)-1H-pyrazolo[3,4-b]pyrazin-6-yl)-3-azabicyclo[4.1.0]heptan-7-yl)methanamine] |
| < 1000 nM | < 500 nM | Cn1cc(C2(CN)C3CCN(c4cnc5c(-c6cccc(Cl)c6Cl)n[nH]c5n4)CC32)nn1 (stereo not shown) [Example 13, (3-(3-(2,3-dichlorophenyl)-1H-pyrazolo[3,4-b]pyrazin-6-yl)-7-(1-methyl-1H-1,2,3-triazol-4-yl)-3-azabicyclo[4.1.0]heptan-7-yl)methanamine] |
| < 1000 nM | < 500 nM | Cc1conc1C1(CN)C2CCN(c3cnc4c(-c5cccc(Cl)c5Cl)n[nH]c4n3)CC21 (stereo not shown) [Example 14, (3-(3-(2,3-dichlorophenyl)-1H-pyrazolo[3,4-b]pyrazin-6-yl)-7-(4-methylisoxazol-3-yl)-3-azabicyclo[4.1.0]heptan-7-yl)methanamine] |
| < 1000 nM | < 500 nM | Cc1conc1C1(CN)C2CCN(c3cnc4c(-c5ccc6nn(C)cc6c5Cl)n[nH]c4n3)CC21 (stereo not shown) [Example 15, (3-(3-(4-chloro-2-methyl-2H-indazol-5-yl)-1H-pyrazolo[3,4-b]pyrazin-6-yl)-7-(4-methylisoxazol-3-yl)-3-azabicyclo[4.1.0]heptan-7-yl)methanamine] |
| < 1000 nM | < 500 nM | CNc1nccc(-c2n[nH]c3nc(N4CCC5C(C4)C5(CN)c4ccccc4F)cnc23)c1Cl (stereo not shown) [Example 16, 4-(6-(7-(aminomethyl)-7-(2-fluorophenyl)-3-azabicyclo[4.1.0]heptan-3-yl)-1H-pyrazolo[3,4-b]pyrazin-3-yl)-3-chloro-N-methylpyridin-2-amine] |
| < 1000 nM | < 500 nM | CNc1nccc(-c2n[nH]c3nc(N4CCC5C(C4)C5(CN)c4cc(C)on4)cnc23)c1Cl (stereo not shown) [Example 17, 4-(6-(7-(aminomethyl)-7-(5-methylisoxazol-3-yl)-3-azabicyclo[4.1.0]heptan-3-yl)-1H-pyrazolo[3,4-b]pyrazin-3-yl)-3-chloro-N-methylpyridin-2-amine] |
| < 1000 nM | < 500 nM | Cc1cc(C2(CN)C3CCN(c4cnc5c(-c6ccnc7ccsc67)n[nH]c5n4)CC32)no1 (stereo not shown) [Example 18, (7-(5-methylisoxazol-3-yl)-3-(3-(thieno[3,2-b]pyridin-7-yl)-1H-pyrazolo[3,4-b]pyrazin-6-yl)-3-azabicyclo[4.1.0]heptan-7-yl)methanamine] |
| < 1000 nM | < 500 nM | Cc1cc(C2(CN)C3CCN(c4cnc5c(-c6cccc7c6CNC7=O)n[nH]c5n4)CC32)no1 (stereo not shown) [Example 19, 4-(6-(7-(aminomethyl)-7-(5-methylisoxazol-3-yl)-3-azabicyclo[4.1.0]heptan-3-yl)-1H-pyrazolo[3,4-b]pyrazin-3-yl)isoindolin-1-one] |
| < 1000 nM | < 500 nM | Cc1cc(C2(CN)C3CCN(c4cnc5c(-c6ccc7scnc7c6)n[nH]c5n4)CC32)no1 (stereo not shown) [Example 20, (3-(3-(benzo[d]thiazol-5-yl)-1H-pyrazolo[3,4-b]pyrazin-6-yl)-7-(5-methylisoxazol-3-yl)-3-azabicyclo[4.1.0]heptan-7-yl)methanamine] |
| < 1000 nM | < 500 nM | Cc1cc(C2(CN)C3CCN(c4cnc5c(-c6ccc(C)c7ncccc67)n[nH]c5n4)CC32)no1 (stereo not shown) [Example 21, (7-(5-methylisoxazol-3-yl)-3-(3-(8-methylquinolin-5-yl)-1H-pyrazolo[3,4-b]pyrazin-6-yl)-3-azabicyclo[4.1.0]heptan-7-yl)methanamine] |
| < 1000 nM | < 500 nM | COc1ccc(-c2n[nH]c3nc(N4CCC5C(C4)C5(CN)c4cc(C)on4)cnc23)c2cccnc12 (stereo not shown) [Example 22, (3-(3-(8-methoxyquinolin-5-yl)-1H-pyrazolo[3,4-b]pyrazin-6-yl)-7-(5-methylisoxazol-3-yl)-3-azabicyclo[4.1.0]heptan-7-yl)methanamine] |
| < 1000 nM | < 500 nM | Cc1cc(C2(CN)C3CCN(c4cnc5c(-c6cccc7cnccc67)n[nH]c5n4)CC32)no1 (stereo not shown) [Example 23, (3-(3-(isoquinolin-5-yl)-1H-pyrazolo[3,4-b]pyrazin-6-yl)-7-(5-methylisoxazol-3-yl)-3-azabicyclo[4.1.0]heptan-7-yl)methanamine] |
| < 1000 nM | < 500 nM | Cc1cc(C2(CN)C3CCN(c4cnc5c(-c6ccc7nn(C)cc7c6Cl)n[nH]c5n4)CC32)no1 (stereo not shown) [Example 24, (3-(3-(4-chloro-2-methyl-2H-indazol-5-yl)-1H-pyrazolo[3,4-b]pyrazin-6-yl)-7-(5-methylisoxazol-3-yl)-3-azabicyclo[4.1.0]heptan-7-yl)methanamine] |
